Measurements reported in BindingDB's records for doi:10.7270/Q21N7ZQ4 (Johns Hopkins Ion Channel Center, 2012).

Target: T1, High affinity choline transporter 1 (Homo sapiens, UniProt Q9GZV3)
T1 sequence (Q9GZV3 whole entry): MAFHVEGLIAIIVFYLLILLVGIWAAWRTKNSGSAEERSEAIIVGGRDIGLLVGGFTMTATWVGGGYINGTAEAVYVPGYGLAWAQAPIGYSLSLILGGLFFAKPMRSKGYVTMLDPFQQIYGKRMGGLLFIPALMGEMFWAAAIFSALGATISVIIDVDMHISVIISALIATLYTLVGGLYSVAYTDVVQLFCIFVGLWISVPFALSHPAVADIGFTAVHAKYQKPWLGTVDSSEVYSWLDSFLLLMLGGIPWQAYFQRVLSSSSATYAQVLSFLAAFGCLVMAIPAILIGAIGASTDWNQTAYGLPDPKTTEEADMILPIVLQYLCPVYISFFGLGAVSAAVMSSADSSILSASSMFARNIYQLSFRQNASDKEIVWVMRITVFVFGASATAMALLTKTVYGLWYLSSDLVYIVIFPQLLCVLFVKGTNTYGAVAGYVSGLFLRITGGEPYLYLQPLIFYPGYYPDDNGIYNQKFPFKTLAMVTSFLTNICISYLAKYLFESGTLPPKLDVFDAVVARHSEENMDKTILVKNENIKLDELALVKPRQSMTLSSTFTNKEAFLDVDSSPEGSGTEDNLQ
Assay: CHT activators, dose response, cell-based, 10-point CRC, membrane potential dye (AID 602376)

Compound	EC50 [µM]
COc1cc(C2c3ccc(N)cc3OC(=N)C2C#N)cc(OC)c1OC (configuration not stated) [2,7-bis(azanyl)-4-(3,4,5-trimethoxyphenyl)-4H-chromene-3-carbonitrile]	13.5
CCOC(=O)c1ccc(-[n+]2c(-c3ccccc3)cc(-c3ccccc3)cc2-c2ccccc2)cc1 [MLS001242871]	14.1
